Reference: patent US9808439B2 (Macau University of Science and Technology, priority 2015, dated 2017)
“Also recorded” adds a separate entry of the source. Read-outs that look alike come from different tables or passages of the source.

Experiments:
[1] = system: MDR1 mRNA / ABCB1 protein in A2780/T cells; test: RT-PCR and Western blot of ABCB1 expression; format: cell-based, human; details: tangeretin 0.83-7.53 μM, 48 hours
Experimental: RT-PCR was performed to evaluate MDR1 mRNA expression. mRNA from cell lysates were purified by binding to poly(dT) magnetic beads (Life technologies) and reverse transcribed by using SuperScript II (Life technologies). Standard quantitative RT-PCR was performed in duplicates at least two to three times by using SYBR Green (Molecular Probes) protocols on the ViiA™ 7 Real-Time PCR System (Life technologies). The primer sequences: 5′-[…]-3′ (SEQ ID […] NO:1) and 3′-[…]-5′ (SEQ ID NO:2) for MDR1, and 5′-[…]-3′ (SEQ ID NO:3) and 3′-[…]-[…]-5′ (SEQ ID NO:4) for control gene eukaryotic translation initiation factor (TIF). RT-PCR data was normalized by measuring average cycle threshold (Ct) ratios between candidate genes and control gene TIF.
The total cellular samples were harvested and rinsed twice with ice-cold PBS buffer. Cell extracts were lysed in RIPA buffer (50 mM Tris (pH 7.4), 150 mM NaCl, 1% Triton X-100, 1% sodium deoxycholate, 0.1% SDS, sodium orthovanadate, sodium fluoride and EDTA) containing protease inhibitor cocktails (Roche Life Science, USA). Protein concentration was determined using the BCA protein assay kit. Equal amounts of cell lysates were resolved by SDS-PAGE and subsequently electrophoretically transferred onto PVDF membranes (Millipore, Darmstadt, Germany). […]

[2] = human, plasma; cited from earlier work
[3] = system: A2780/T cells; test: SRB cell cytotoxicity assay in A2780/T; details: tangeretin at 7.53 μM, all cell lines
Experimental: (§1) Sulphorhodamine B (SRB) assays were carried out as previously described to assess cell density, based on sensitive measure of total cellular protein, which performed similarly compared with other proliferation assays such as MTT assay. Briefly, cells were seeded into flat bottomed 96-well plates at an initial density of 7.5×10^3 per well before treatment. […] After removing the medium, cells were fixed in 10% trichloroacetic acid for 1 h at 4° C. and then washed with water five times. 0.4% SRB dissolved in 1% v/v acetic acid was added and incubated 30 mm for staining. The cells were quickly washed with 1% acetic acid and left to dry overnight. The protein bound SRB was solubilized by adding 200 μl 10 mM Tris buffer per well and measured at wavelengths 490 nm using a plate reader (Spectra MAX 250; Molecular Devices, Sunnyvale, Calif.).

[4] = biological target: T1, recombinant human ABCB1 membranes (Homo sapiens, UniProt P08183); test: ABCB1 ATPase activity assay (Pgp-Glo); format: biochemical
T1 construct: purchased Promega
Experimental: Sodium orthovanadate (Na3VO4) was used as an ABCB1 ATPase inhibitor. […] Luminescence was initiated by ATP detection buffer. The plate (white opaque 96-well, corning, USA) was further incubated at room temperature for […] to develop luminescent signal, and was read with luminometer (infinite M200 PRO,TECAN, Switzerland).

[5] = rat, plasma; cited from earlier work
[6] = in vitro; details: human, A2780 cells
[7] = system: A2780/T cells; test: Intracellular accumulation of DOX and Flutax-2 in A2780/T; format: cell-based, human; details: 8 h, 7.53 μM tangeretin or 20 μM QND
Experimental: cells (5×10^6) were cultured on the cover glass (ISO LAB 20×20 mm). […] After treatment, cells were fixed in 4 wt % formaldehyde (Sigma-Aldrich). Nuclear DNA was stained with 1 μg/mL blue-fluorescent DAPI (1 mg/mL in H2O stock solution; Invitrogen D1306). One drop of fluorescent preservation solution (fluorsave reagent, CALBIOCHEM) was added before observation. Imaging was carried out for comparing the intracellular accumulation of DOX and flutax-2 with a Fluorescence Microscopy (Leica DM2500, Leica, Germany). […] Cells were detached, re-suspended in 500 μl of PBS after washed twice with cold PBS, and analyzed by flow cytometry (BD FACS Aria, BD Biosciences, San Jose, Calif.). Excitation and emission wavelengths (nm) used for DOX and flutax-2 were as follows: 480 to 585; and 496 to 524.

[8] = biological target: P-gp (ABCB1 transporter) in Caco-2 cells (Homo sapiens, UniProt P08183)
[9] = system: A2780 cells; test: Intracellular accumulation of DOX and Flutax-2 in A2780; format: cell-based, human; details: parental A2780, 7.53 μM tangeretin, 8 h
Experimental: A2780 or A2780/T cells (5×10^6) were cultured on the cover glass (ISO LAB 20×20 mm). […] After treatment, cells were fixed in 4 wt % formaldehyde (Sigma-Aldrich). Nuclear DNA was stained with 1 μg/mL blue-fluorescent DAPI (1 mg/mL in H2O stock solution; Invitrogen D1306). One drop of fluorescent preservation solution (fluorsave reagent, CALBIOCHEM) was added before observation. Imaging was carried out for comparing the intracellular accumulation of DOX and flutax-2 with a Fluorescence Microscopy (Leica DM2500, Leica, Germany).
Cells were detached, re-suspended in 500 μl of PBS after washed twice with cold PBS, and analyzed by flow cytometry (BD FACS Aria, BD Biosciences, San Jose, Calif.). Excitation and emission wavelengths (nm) used for DOX and flutax-2 were as follows: 480 to 585; and 496 to 524. Quinidine (QND, 20 μM), a known ABCB1 inhibitor, was used as a positive control.

[10] = system: A2780/T cells; test: Cell cycle analysis by flow cytometry in A2780/T; format: cell-based, human; details: tangeretin 7.53 μM alone
Experimental: A2780/T cells were harvested after 24-hours, 48-hour, or 72-hour treatment and washed twice with ice-cold PBS. The cells were fixed and permeabilized with 70% ice-cold ethanol overnight at 4° C. or −20° C. for 2 h. After one additional wash in PBS, cells were stained with a staining solution containing PI ([…]) and RNase A (250 μg/ml) for […] at room temperature. They were then pelleted, washed and suspended in PBS to a final concentration of 1×10^6/ml and analyzed by flow cytometry (BD FACS Aria, BD Biosciences, San Jose, Calif.).

[11] = in vitro; details: human, A2780/T cells
Experimental: as §1

[12] = system: A2780/T cells; test: Apoptosis by Annexin-V/PI double staining; format: cell-based, human
Experimental: After treatment, 1×10^6 cells were collected, washed and suspended in 100 μl of binding buffer (10 mM N-2-hydroxyethylpiperazine-N,-2-ethanesulfonic acid/NaOH, 140 mM NaCl, 2.5 mM CaCl2, pH 7.4). Apoptotic cells were identified by double supravital staining with 5 μl recombinant FITC (fluorescein isothiocyanate)-conjugated Annexin-V and 5 μl PI (50 μg/ml). The cells were stained for […] at room temperature in the dark, and analyzed by fluorescence-activated cell sorting cater-plus flow cytometry. Data acquisition and analysis were performed in BD FACS Aria with FlowJo software.

[13] = system: p53; test: Western blot of p53 expression; format: cell-based, human; details: tangeretin at various concentrations, 48 hours, Western blot
Experimental: The total cellular samples were harvested and rinsed twice with ice-cold PBS buffer. Cell extracts were lysed in RIPA buffer (50 mM Tris (pH 7.4), 150 mM NaCl, 1% Triton X-100, 1% sodium deoxycholate, 0.1% SDS, sodium orthovanadate, sodium fluoride and EDTA) containing protease inhibitor cocktails (Roche Life Science, USA). Protein concentration was determined using the BCA protein assay kit. Equal amounts of cell lysates were resolved by SDS-PAGE and subsequently electrophoretically transferred onto PVDF membranes (Millipore, Darmstadt, Germany). After blocking in tris-buffered saline containing 0.1% of Tween20 (TBST) with 5% (w/v) skim milk (Nestle Carnation, New Zealand) for 2 h at room temperature, the membranes were incubated with primary and secondary antibodies and subsequently visualized with an enhanced chemiluminescence detection kit (Thermo Scientific™ SuperSignal™ West Pico Chemiluminescent Substrate, USA). β-Actin was used as the loading control for the experimental data analysis.

[14] = system: A2780/T cells; test: Combination index, Chou-Talalay method (CalcuSyn); format: cell-based, human; details: Homo sapiens, read-out: Dose tangeretin at Fa 0.5 (ED50), CalcuSyn simulation, alone or in combination
Experimental: Combination index (CI) was calculated to quantitatively depict synergistic ([…], additive (CI=1), or antagonistic (CI>1) effect. With the use of CalcuSyn software v. 2.1 (Bio-soft), synergy is further refined as synergism (combination index=0.3-0.7), strong synergism (combination index=0.1-0.3), and very strong synergism (combination index<0.1).

T1 sequence (P08183 whole entry): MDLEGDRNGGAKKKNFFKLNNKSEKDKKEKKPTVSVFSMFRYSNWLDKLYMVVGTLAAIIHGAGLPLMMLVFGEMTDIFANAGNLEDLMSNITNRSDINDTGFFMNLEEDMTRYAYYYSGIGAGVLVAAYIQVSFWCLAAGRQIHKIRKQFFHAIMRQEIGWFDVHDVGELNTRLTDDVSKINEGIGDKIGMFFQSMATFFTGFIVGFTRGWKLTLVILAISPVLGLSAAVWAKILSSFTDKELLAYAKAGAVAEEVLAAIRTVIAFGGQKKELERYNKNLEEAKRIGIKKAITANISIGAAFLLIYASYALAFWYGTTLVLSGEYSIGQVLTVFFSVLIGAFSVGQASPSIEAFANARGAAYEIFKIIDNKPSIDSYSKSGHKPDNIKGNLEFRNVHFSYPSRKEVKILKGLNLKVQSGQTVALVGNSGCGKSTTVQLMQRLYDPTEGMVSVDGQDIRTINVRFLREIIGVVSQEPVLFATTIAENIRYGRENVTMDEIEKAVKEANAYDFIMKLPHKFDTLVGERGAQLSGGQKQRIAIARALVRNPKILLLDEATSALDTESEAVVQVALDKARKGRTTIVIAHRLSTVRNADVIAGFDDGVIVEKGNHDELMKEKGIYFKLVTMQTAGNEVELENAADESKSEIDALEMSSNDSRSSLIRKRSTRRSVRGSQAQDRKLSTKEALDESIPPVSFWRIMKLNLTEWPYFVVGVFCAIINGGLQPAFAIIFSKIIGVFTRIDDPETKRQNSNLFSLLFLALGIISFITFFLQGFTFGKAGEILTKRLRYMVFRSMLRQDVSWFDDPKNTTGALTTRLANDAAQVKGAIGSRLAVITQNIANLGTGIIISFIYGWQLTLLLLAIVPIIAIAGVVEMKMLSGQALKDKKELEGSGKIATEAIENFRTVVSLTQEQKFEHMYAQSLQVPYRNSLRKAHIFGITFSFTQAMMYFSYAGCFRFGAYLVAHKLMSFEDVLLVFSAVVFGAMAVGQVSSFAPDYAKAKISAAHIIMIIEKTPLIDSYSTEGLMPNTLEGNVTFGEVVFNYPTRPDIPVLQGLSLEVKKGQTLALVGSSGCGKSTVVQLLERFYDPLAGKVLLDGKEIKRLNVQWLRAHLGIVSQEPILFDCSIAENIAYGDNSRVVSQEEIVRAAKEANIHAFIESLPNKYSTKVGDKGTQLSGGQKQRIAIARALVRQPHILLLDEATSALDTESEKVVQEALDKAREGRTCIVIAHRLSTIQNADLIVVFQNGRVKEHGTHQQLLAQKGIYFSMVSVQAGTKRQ
Chain of P-gp (ABCB1 transporter) in Caco-2 cells (P08183 whole entry): as above

COc1ccc(-c2cc(=O)c3c(OC)c(OC)c(OC)c(OC)c3o2)cc1 [Tangeretin, 5,6,7,8,4′-pentamethoxyflavone]
mRNA or protein level of ABCB1 [1]: did not influence | mRNA or protein level of ABCB1 ([1]; listed as tangeretin): did not alter | Cmax [2]: 1000 to 5000 nM | cells survived [3]: more than 90% | IC50 ([4]; 200 μM verapamil, read-out: IC50 for inhibiting verapamil-stimulated P-gp ATPase activity): 7.87 µM | EC50 ([4]; recombinant human ABCB1 membranes, 37° C., 40 min, read-out: EC50 for stimulating P-gp ATPase activity): 11.6 µM | maximal stimulation of ATPase activity ([4]; relative to the basal activity): 3 fold | Cmax [5]: 1000 to 5000 nM | IC50 [6]: 35.6 µM | intracellular accumulations of DOX and Flutax-2 [7]: remarkably enhanced; also recorded: higher than that of untreated A2780/T | inhibitory effect on efflux compared with 20 μM QND [8]: more potent than that of QND | inhibitory effect on efflux compared with 20 μM QND ([8]; human, 2 h, 2.51 μM): stronger than that of 20 μM QND | DOX and Flutax-2 levels [9]: did not significantly alter; also recorded: no effect | effect on the cell cycle [10]: no effect | IC50 [11]: 36.4 µM | apoptosis induction, single treatment ([12]; 7.53 μM tangeretin or 0.94 μM PTX alone): did not show apoptosis induction | apoptosis induced by 0.94 μM PTX ([12]; with 0.83, 2.51 and 7.53 μM tangeretin, A2780/T): significantly increase apoptosis | p53 expression [13]: unregulated the p53 expression | EC50 [14]: 67.5 µM
